Assay results as given in US7166472B2, “Method for the identification of agents that inhibit or promote cataracts and uses thereof” (The General Hospital Corporation, priority 2000, dated 2007).
Residue numbers refer to the chain shown, from its start.

Columns and labels:
α-crystallin = biological target: T1, α-crystallin (Bos taurus, UniProt P02470+P02510); experiment: α-Crystallin modification under longwave ultraviolet illumination; type: biochemical; conditions: exposure of α-crystallin in the presence of longwave ultraviolet illumination
T1 sequence (P02470 1-173): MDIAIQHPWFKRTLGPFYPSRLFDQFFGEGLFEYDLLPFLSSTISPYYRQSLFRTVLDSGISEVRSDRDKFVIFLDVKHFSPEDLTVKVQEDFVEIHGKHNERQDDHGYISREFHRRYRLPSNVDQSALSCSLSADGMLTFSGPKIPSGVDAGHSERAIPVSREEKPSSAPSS
T1 sequence (P02510 1-175): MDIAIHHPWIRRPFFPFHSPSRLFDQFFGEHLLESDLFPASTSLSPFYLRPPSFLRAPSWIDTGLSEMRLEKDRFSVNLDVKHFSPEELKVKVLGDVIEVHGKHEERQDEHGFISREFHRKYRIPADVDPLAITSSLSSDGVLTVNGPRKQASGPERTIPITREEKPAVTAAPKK

[1] = Metal reduction assay, Cu(II) to Cu(I) (BC/BCA indicator); type: biochemical; conditions: for reduction of Cu(II): test compound 10 μM, Cu(II)-glycine 25 μM, PBS pH 7.4, 37° C., dark, one hour
Method: (§1) Metal Reduction Assays—Assays were performed using a 96-well microtiter plate (Costar, Mass.). Test compounds from the kynurenine pathway (10 μM) or, as a positive control, ascorbic acid (ASC, 10 μM) were co-incubated with either Fe(III)-citrate (25 μM) and the Fe(II) indicator bathophenanthroline disulfonic acid (BP, 250 μM), or Cu(II)-glycine (25 μM) and the Cu(I) indicator bathocuproine disulfonic acid (BC) or bicinchoninic acid (BCA, 250 μM). Incubations were conducted in PBS, pH 7.4, at 37° C. in the dark for one hour. Absorbencies were then measured using a plate reader (SPECTRAmax Plus, Molecular Devices, CA) at the appropriate wavelengths: Fe(II)-BP complex at 535 nm (the known molar absorption coefficient, M535,=22140 M^−1 cm^−1), Cu(I)-BC complex at 483 nm, M483=12250 M^−1cm^−1), or Cu(I)-BCA complex at 562 nm, M562=7700 M^−1cm^−1). In control samples, absorbance from the metal ion and indicator in the absence of test compound and the absorbance of test compound in the presence of metal ions, but in the absence of indicator, were determined. The absorbencies from these controls were deducted from those obtained in the presence of the test compound, metal and indicator to yield the net absorbance (ΔA). Fe(II) or Cu(I) concentrations (μM) were calculated according to the formula: C(μM)=ΔA*10^6/Mλ.
The compounds comprising the kynurenine pathway (FIG. 1) were assayed for their ability to reduce […] and Cu(II) (FIG. 2A). […] Values represent the mean±SD for three independent measurements.

[2] = Hydrogen peroxide assay (DCF fluorometric); type: biochemical
Method: Hydrogen Peroxide Assay—The fluorometric assay for hydrogen peroxide is based on the dichlorofluorescein diacetate (DCF) method (Molecular Probes, Eugene, Oreg.). The DCF solution (5 mM) in 100% ethanol was deacetylated in the presence of 0.01 M NaOH for 30 minutes and neutralized. Horseradish peroxidase (200 U/ml) was then added and the DCF concentration adjusted to 200 μM in PBS. The reaction solutions were carried out in PBS, pH 7.4, in a 96-well format plate (total volume=300 μL/well) and contained a test compound (KYN, 3-HK, 3-HAA, ANA, or ASC, each at 10 μM), deacetylated DCF (20 μM), and Cu(II)-glycine (1 μM) as indicated, incubated at 37° C. for 60 minutes. […] Abolition of the reading by co-incubation with catalase (1000 U/ml) was used for establishing H2O2 specificity. The fluorescent readings were recorded by a Packard FLURORCOUNT™ fluorescent plate reader with a 485 nm excitation filter and 530 nm emission filter. Concentrations were determined by comparison to a standard curve using reagent grade hydrogen peroxide in CHELEX™ chelating ion exchanae resin-treated PBS buffer, pH 7.4.
Reactions were conducted in the absence of added Cu(II), in the presence of added glycine-complexed Cu(II) (1 μM), in the presence of added glycine-complexed Cu(II) (1 μM) and catalase (1000 U/ml), or with added glycine-complexed Cu(II) (1 μM) and the copper chelator triethylenetetramine (TETA, 200 μM).

[3] = Metal reduction assay, Fe(III) to Fe(II) (BP indicator); type: biochemical; conditions: test compound 10 μM, Fe(III)-citrate 25 μM, PBS pH 7.4, 37° C., dark, one hour
Method: as §1, with “C(μM)=ΔA*10^6/Mλ. […]” for “C(μM)=ΔA*10^6/Mλ.”

[4] = Superoxide assay (dihydroethidium fluorometric); type: biochemical; conditions: test compound 10 μM
Method: Superoxide Assay—The fluorometric assay for superoxide is based upon the dihydroethidium (DHE, HYDROETHDNE™) method (Molecular Probes, Eugene, Oreg.) and used according to the manufacturer's instructions. DHE (1 mM) was freshly prepared in 100% argon-sparged DMSO. The reaction solutions were carried out in PBS, pH 7.4, under ambient gas conditions, in 96-well format plates and contained a test compound (KYN, 3-HK, 3-HAA, and ANA, each at 10 μM), DHE (100 μM), +/− Cu(II)-glycine (1 μM) and incubated at 37EC for 60 minutes. […] Abolition of the reading by co-incubation with superoxide dismutase (1000 U/ml) was used for establishing superoxide specificity. The fluorescent readings were recorded by a Packard FLUOROCOUNT™ fluorescent plate reader with a 510 nm excitation filter and 590 nm emission filter. Potassium superoxide dissolved in degassed DMSO was used as a positive control.

[5] = Cyclic voltammetry of kynurenine metabolites with Cu(II); type: physicochemical; conditions: metabolite 100 μM, cupric chloride 25 μM, PBS pH 7.4
Method: Cyclic Voltammetry—Cyclic voltammetry was performed at room temperature (22±2° C.) on ambient solutions using an EG&G PAR potentiostat, Model 273. The potentiostat was operated in Ramp Mode, generating a potential staircase waveform with a 0.25 mV step height. The potential window of +0.15 to −0.4V, in which Cu(I) is electroactive, but the metabolites are not, was scanned in both directions at a rate of 100 mV/sec. The current response was passed through a 5.3 Hz low pass filter. A minimum of three cycles were collected for each scan, ensuring the stability of the electrochemical response. The electrochemical cell consisted of an indium/tin oxide working electrode (Delta Technologies) with an active area of 0.32 cm^2, a platinum wire auxiliary electrode, and a Ag/AgCl (1 M KCl) reference electrode (Microelectrodes Inc.). Both the auxiliary and reference electrodes were positioned in the cell in close proximity to the working electrode. The working electrodes were pretreated with successive 10 minute sonications in Alconox (˜8 g/L), 95% ethanol, Milli-Q purified H2O (2×), and PBS (pH 7.4), followed by an overnight soak in PBS (pH 7.4). The ITO electrodes were subsequently “activated” immediately prior to use by successive cycling in PBS for three cycles in each of the following potential windows: +0.15 ? −0.4 V, +0.4 ? −0.4 V, and +1.0 ? −0.4 V. Cupric chloride (25 μM; Allied Chemical) was used as the Cu(II) source. Background voltammograms were obtained on each new electrode before testing the kynurenine pathway metabolites. PBS solutions of KYN, 3-HK, ANA, and 3-HAA (each at 100 μM) were separately scanned with and without added Cu(II) (25 μM). Each experiment also included a scan of Cu(II) (25 μM) in PBS without added test compound. All solutions were tested within minutes of being prepared. Each test was repeated to ensure the reproducibility of the results.
The voltammograms in FIGS. 3A–3D compare 3-HK and 3-HAA to their corresponding non-phenolic analogs, kynurenine (KYN) and anthranilic acid (ANA), in aqueous solutions of Cu(II) at pH 7.4. […] At potentials above +0.15 V, the metabolites undergo direct irreversible oxidation, a reaction that is not considered further here. Cyclic voltammetry of Cu(II) in PBS yielded a current response at ≈−100 mV due to reduction of the metal ion (scan “b” in each panel).

[6] = Thiobarbituric acid-reactive substance (TBARS) assay for hydroxyl radical; type: biochemical; conditions: reaction with Cu(II)
Description: Although two Fenton chemistry substrates, hydrogen peroxide and reduced redox-active metal, are produced by 3-HK and 3-HAA, evidence of the hydroxyl radical was not detected using the thiobarbituric acid-reactive substance assay (Huang, X. et al., Biochem. 38:7609–7616 (1999)) (data not shown).

[7] = Metal reduction capacity of tanned calf lens α-crystallin, Cu(II); type: biochemical; conditions: α-crystallin treated with 100 μM reductant, then dialysis
Method: Studies of Tanned Calf Lens Crystalin in Assay of Crystallin Protein for Metal Reduction Capacity—α-Crystallin (10 mg/ml) from calf lens was modified by reaction with 3-HK (100 μM), 3-HAA (100 μM), or ASC (100 μM) in PBS, ph 7.4, for 12 hours at 4° C. in the dark. Control samples were incubated with ascorbic acid (100 μM) or without added reductant. The tanning incubation solutions also contained triethylenetetramine (TETA, 200 μM) to prevent cross-linking of the protein. After incubation, free reductant was removed from the tanned α-crystallin preparations by exhaustive dialysis at 4EC in the dark utilizing PBS, pH 7.4, containing CHELEX™ 100 chelating ion exchange resin (BioRad, Hercules, Calif.). The various modified α-crystallin preparations (100 μg/ml) were co-incubated with either Cu(II)-glycine glycine (25 μM) or Fe(III)-citrate (25 μM) for one hour at 37° C. and assayed for metal reduction capacity using the BC and BP spectrophotometric assay as detailed above. Incubated and dialyzed α-crystallin (100 μg/ml) and untreated α-crystallin (100 μg/ml) preparations were used for procedural control.
3-HK: α-crystallin reduced nearly 100% of the available Cu(II) and approximately 20% of the available Fe(III). 3-HAA: α-crystallin reduced approximately 65% of the available Cu(II).

[8] = Hydrogen peroxide assay (DCF fluorometric); type: biochemical; conditions: reacting with Cu(II), 37° C., dark
[9] = biological target: bovine serum albumin (BSA) (Bos taurus, UniProt P02769); conditions: 3-HK with Cu(II); TETA
[10] = biological target: T2, recombinant human αB-crystallin (Homo sapiens, UniProt P02511); experiment: Recombinant human αB-crystallin cross-linking (SDS-PAGE, silver stain); type: biochemical; conditions: TETA 200 μM
T2 construct: gift of Dr. J. Liang, Brigham and Women's Hospital
T2 sequence (P02511 1-175): T1 sequence (P02510 1-175) with A40T, I61F, A132T, A152V
Method: Various solutions containing 3-HK (10 μM) or other kynurenine pathway metabolites (10 μM), Cu(II)-glycine (10 μM), Fe(III)-citrate (10 μM), and triethylenetetramine (TETA, 200 μM), were added in combinations as indicated. […] After incubation, aliquots of the total lens protein solutions were mixed with sample buffer containing 4% SDS and 5% β-mercaptoethanol, heated to 95° C. for 5 minutes, and loaded at 1 μg/lane on a 10–20% Tricine gel (Novex, San Diego, Calif.). […] For the experiments with recombinant αB-crystallin, aliquots of the protein solutions were mixed with sample running buffer containing NuPAGE sample buffer (Novex, San Diego, Calif.) and 10% β-mercaptoethanol, heated to 95° C. for 5 minutes, spun briefly, then loaded on a NuPAGE 4–12% Bis-Tris polyacrylamide gel at 375 ng/lane and electrophoresed with denaturing 3-(N-morpholino)propanesulfonic acid (MOPS)-SDS running buffer according to the manufacturer's recommendations.
To exclude the effects of other lens proteins on the observed findings in FIG. 5, these interactions with purified recombinant human αB-crystallin were examined.

αB-crystallin = biological target: T3, αB-crystallin (Bos taurus, UniProt P02510); experiment: αB-crystallin cross-linking in total calf lens protein (Western blot)
T3 sequence (P02510 1-175): T1 sequence (P02510 1-175)

Sequence of bovine serum albumin (BSA) (P02769 25-607): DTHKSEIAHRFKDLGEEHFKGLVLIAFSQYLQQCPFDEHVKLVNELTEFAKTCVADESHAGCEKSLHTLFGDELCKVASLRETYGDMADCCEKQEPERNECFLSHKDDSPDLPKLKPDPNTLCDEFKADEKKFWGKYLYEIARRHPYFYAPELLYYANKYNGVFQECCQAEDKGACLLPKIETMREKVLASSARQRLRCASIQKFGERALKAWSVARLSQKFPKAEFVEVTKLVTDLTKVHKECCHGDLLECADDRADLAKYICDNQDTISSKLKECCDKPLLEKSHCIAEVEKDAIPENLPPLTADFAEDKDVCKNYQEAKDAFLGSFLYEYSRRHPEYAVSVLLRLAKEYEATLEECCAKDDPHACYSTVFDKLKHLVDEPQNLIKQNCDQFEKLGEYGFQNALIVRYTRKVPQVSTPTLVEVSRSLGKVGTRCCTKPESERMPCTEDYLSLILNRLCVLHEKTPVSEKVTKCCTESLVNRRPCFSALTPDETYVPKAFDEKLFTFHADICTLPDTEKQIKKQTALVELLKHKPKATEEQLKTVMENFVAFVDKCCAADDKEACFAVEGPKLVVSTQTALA

## Nc1c(O)cccc1C(=O)O [3-HAA, 3-hydroxyanthranilic acid]
α-crystallin
  capacity of altered α-crystallin to reduce metal and generate hydrogen peroxide: dramatically enhanced capacity
[1]
  reduction of Cu(II): 100%
[2]
  hydrogen peroxide generated relative to available Cu(II): approximately 3 fold
[2]; ambient gas conditions, CHELEX-treated PBS, FIG. 4C
  hydrogen peroxide generated: approx. 3 μM
[3]
  reduction of Fe(III): approximately 50%
[4]; Cu(II)-glycine 1 μM
  effect of Cu(II) on superoxide generation: strongly promoted
[4]; ambient oxygen, dark, 60 minutes
  superoxide production: significant superoxide production
[5]
  Cu(II) reduction wave in presence of metabolite: markedly decreased
[6]
  evidence of the hydroxyl radical: not detected

## O=C1O[C@H]([C@@H](O)CO)C(O)=C1O [ASC, ascorbic acid, reference compound]
α-crystallin
  capacity of altered α-crystallin to reduce metal and generate hydrogen peroxide: did not share this property
[7]
  enhancement of α-crystallin reducing efficiency after treatment: did not result in the enhancement
[8]
  time dependence of hydrogen peroxide generation: continuous over five hours

## NCCNCCNCCN [TETA, triethylenetetramine, reference compound]
[1]; chelator 250 μM
  effect of chelator on metal reduction by 3-HK, 3-HAA and XA: abolished
[2]; Cu(II) 1 μM, catalase 1000 U/ml or TETA 200 μM
  effect on hydrogen peroxide generation by 3-HK or 3-HAA: abolished
[9]
  effect on BSA protein depletion: abolished
[10]
  effect on 3-HAA Cu(II)-dependent oligomerization and loss of the monomer: reversed
  effect on cross-linking by Cu(II) and 3-HK: substantially attenuated
  effect on depletion of monomeric αB-crystallin by 3-HK and Cu(II): completely reversed the depletion
αB-crystallin; TETA 200 μM co-incubation
  effect on 3-HK induced αB-crystallin cross-linking: abolished
αB-crystallin; co-incubated with 3-HK and Cu(II), TETA 200 μM
  effect on depletion of monomeric αB-crystallin: reversed the depletion

## O=C(O)c1cc(O)c2cccc(O)c2n1 [XA, xanthurenic acid]
[1]
  reduction of Cu(II): approximately 40%
[3]
  reduction of Fe(III): did not reduce
